Literature values in patent US4661473A, “Renin inhibitors containing peptide isosteres” (Merck & Co., Inc., priority 1984, dated 1987).

System: hog renin
Settings: after the injection of hog renin into nephrectomized rats; Gross et al. 1971

Pepstatin
blood pressure in vivo: reduce blood pressure in vivo
